Experimental data as given in ChEMBL document CHEMBL3396964, “SAH derived potent and selective EZH2 inhibitors” (Bioorg Med Chem Lett, 2015).
Activity calls are given as the source filed them. No cut-off for these calls is given here.

Columns and labels:
[1] = biological target: Histone-lysine N-methyltransferase EZH2 (Homo sapiens, UniProt O75530+Q09028+Q15022+Q15910); test: Inhibition of N-terminally FLAG-tagged wild type EZH2 in EZH2/SUZ12/EED/RbAp48 complex (unknown origin) expressed in baculovirus infected in SF9 cells assessed as inhibition of methylation of nucleosomes at H3K27 by scintillation counting in presence of [3H]SAM
[2] = biological target: Histone-lysine N-methyltransferase EZH2 (Homo sapiens, UniProt O75530+Q09028+Q15022+Q15910, Y641N); test: Inhibition of N-terminally FLAG-tagged EZH2 Y641N mutant in EZH2/SUZ12/EED/RbAp48 complex (unknown origin) expressed in baculovirus infected in SF9 cells assessed as inhibition of methylation of nucleosomes at H3K27 by scintillation counting in presence of [3H]SAM
[3] = biological target: T1, Histone-lysine N-methyltransferase EHMT1 (Homo sapiens, UniProt Q9H9B1); test: Inhibition of EHMT1 (unknown origin) by HMT assay
T1 sequence (Q9H9B1 whole entry): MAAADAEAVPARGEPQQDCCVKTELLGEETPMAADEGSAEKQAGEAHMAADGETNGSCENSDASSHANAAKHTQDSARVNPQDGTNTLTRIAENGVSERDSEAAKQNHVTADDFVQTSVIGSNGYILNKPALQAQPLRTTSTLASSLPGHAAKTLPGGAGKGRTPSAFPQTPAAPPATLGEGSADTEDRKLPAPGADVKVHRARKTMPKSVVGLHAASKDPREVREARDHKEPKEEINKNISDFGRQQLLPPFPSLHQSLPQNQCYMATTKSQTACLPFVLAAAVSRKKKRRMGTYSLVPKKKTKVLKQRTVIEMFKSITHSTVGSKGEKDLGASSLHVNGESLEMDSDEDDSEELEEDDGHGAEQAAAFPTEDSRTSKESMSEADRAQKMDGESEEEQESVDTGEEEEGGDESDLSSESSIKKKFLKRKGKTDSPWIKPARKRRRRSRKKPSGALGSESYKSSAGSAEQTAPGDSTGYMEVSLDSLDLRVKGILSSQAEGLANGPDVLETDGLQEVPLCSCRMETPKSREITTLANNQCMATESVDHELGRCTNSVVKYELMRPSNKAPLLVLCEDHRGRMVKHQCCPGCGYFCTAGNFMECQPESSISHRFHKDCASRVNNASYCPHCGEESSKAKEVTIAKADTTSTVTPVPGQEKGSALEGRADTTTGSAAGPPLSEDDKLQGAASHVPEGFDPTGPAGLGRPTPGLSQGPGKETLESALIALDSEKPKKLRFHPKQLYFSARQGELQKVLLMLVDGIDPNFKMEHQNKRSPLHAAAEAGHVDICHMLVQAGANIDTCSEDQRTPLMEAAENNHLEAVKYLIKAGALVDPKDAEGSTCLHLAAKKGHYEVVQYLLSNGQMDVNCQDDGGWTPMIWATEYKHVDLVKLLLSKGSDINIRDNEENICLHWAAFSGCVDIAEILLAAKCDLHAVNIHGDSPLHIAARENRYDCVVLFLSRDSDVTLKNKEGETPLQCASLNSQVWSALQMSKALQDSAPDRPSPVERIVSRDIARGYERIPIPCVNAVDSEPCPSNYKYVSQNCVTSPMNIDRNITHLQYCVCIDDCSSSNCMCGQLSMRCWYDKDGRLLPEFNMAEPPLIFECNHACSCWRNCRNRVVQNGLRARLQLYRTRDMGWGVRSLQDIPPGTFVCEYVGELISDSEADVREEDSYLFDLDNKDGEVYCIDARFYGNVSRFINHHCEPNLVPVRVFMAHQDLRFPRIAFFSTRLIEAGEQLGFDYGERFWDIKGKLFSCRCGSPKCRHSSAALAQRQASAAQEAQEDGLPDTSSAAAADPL

[4] = biological target: T2, Histone-lysine N-methyltransferase SETD7 (Homo sapiens, UniProt Q8WTS6); test: Inhibition of SETD7 (unknown origin) by HMT assay
T2 sequence (Q8WTS6 whole entry): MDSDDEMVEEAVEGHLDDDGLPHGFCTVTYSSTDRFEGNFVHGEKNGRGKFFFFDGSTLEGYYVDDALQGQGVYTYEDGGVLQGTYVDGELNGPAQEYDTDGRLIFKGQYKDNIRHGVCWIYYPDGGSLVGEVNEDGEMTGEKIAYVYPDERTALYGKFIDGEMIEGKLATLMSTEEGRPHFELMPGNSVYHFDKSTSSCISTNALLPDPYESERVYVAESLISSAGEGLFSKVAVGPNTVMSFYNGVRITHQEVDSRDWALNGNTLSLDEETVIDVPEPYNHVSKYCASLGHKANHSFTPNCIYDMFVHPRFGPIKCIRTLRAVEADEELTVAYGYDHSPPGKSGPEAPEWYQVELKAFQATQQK

[5] = biological target: N-lysine methyltransferase SMYD2 (Homo sapiens, UniProt Q9NRG4); test: Inhibition of SMYD2 (unknown origin) by HMT assay
[6] = biological target: Histone-lysine N-methyltransferase 2A (Homo sapiens, UniProt Q03164); test: Inhibition of MLL (unknown origin) by HMT assay
[7] = biological target: Histone-lysine N-methyltransferase SUV39H2 (Homo sapiens, UniProt Q9H5I1); test: Inhibition of SUV39H2 (unknown origin) by HMT assay
[8] = biological target: Histone-lysine N-methyltransferase EZH2 (Homo sapiens) (UniProt Q15910); test: Inhibition of EZH2 (unknown origin) at 100 uM by cell-based assay
[9] = biological target: Histone-lysine N-methyltransferase SETDB1 (Homo sapiens, UniProt Q15047); test: Inhibition of SETDB1 (unknown origin) by HMT assay
[10] = biological target: Histone-lysine N-methyltransferase KMT5C (Homo sapiens, UniProt Q86Y97); test: Inhibition of SUV420H2 (unknown origin) by HMT assay
Chain of Histone-lysine N-methyltransferase KMT5C (Q86Y97 whole entry): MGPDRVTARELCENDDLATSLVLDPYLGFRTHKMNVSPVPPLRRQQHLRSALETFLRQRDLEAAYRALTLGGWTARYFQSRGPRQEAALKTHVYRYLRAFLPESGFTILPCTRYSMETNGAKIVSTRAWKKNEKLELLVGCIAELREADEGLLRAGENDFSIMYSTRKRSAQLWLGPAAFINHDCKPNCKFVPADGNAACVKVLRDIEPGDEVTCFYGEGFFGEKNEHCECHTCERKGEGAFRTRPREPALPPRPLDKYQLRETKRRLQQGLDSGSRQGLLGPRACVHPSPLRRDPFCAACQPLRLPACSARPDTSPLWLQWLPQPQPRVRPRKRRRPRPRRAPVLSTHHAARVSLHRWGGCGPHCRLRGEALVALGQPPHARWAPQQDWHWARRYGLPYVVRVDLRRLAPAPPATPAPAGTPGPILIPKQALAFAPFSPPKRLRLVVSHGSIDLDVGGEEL

Chain of Histone-lysine N-methyltransferase EZH2 (Homo sapiens, UniProt O75530+Q09028+Q15022+Q15910, Y641N) (Q15910 whole entry Y641N, one chain of several): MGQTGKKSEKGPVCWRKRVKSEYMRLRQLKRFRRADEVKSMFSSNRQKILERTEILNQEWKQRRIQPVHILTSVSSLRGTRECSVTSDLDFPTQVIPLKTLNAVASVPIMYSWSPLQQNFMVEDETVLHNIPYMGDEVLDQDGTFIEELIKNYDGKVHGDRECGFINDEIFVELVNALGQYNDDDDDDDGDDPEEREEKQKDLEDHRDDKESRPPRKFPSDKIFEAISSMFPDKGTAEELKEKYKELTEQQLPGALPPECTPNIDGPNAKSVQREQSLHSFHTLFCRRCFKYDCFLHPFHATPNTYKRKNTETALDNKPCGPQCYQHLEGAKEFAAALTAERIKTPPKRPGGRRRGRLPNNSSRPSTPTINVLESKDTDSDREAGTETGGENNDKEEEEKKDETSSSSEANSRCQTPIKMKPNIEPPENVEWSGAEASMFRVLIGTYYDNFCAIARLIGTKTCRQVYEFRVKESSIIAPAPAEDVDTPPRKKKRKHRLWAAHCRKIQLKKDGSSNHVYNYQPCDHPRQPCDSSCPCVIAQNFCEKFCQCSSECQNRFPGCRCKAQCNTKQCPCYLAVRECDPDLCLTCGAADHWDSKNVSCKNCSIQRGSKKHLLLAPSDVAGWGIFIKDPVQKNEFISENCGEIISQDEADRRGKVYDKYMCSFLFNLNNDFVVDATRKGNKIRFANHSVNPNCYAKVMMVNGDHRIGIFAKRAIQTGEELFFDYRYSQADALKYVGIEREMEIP
Chain of Histone-lysine N-methyltransferase EZH2 (Homo sapiens, UniProt O75530+Q09028+Q15022+Q15910) (Q15910 whole entry, one chain of several): as the sequence (Q15910 whole entry Y641N, one chain of several) above, with N641Y counted along it
Chain of N-lysine methyltransferase SMYD2 (Q9NRG4 whole entry): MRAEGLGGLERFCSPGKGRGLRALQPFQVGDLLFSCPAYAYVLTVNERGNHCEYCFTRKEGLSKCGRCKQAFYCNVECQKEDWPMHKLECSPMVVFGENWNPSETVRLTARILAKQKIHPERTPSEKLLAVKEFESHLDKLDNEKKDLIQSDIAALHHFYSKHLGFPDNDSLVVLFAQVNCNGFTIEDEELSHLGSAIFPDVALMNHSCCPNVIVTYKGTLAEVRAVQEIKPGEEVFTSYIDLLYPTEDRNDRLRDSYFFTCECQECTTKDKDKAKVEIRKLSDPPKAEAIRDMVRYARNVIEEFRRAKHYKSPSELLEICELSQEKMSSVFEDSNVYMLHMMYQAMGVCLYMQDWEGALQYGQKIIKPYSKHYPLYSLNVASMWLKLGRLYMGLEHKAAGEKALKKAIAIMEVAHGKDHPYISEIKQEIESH
Chain of Histone-lysine N-methyltransferase SUV39H2 (Q9H5I1 whole entry): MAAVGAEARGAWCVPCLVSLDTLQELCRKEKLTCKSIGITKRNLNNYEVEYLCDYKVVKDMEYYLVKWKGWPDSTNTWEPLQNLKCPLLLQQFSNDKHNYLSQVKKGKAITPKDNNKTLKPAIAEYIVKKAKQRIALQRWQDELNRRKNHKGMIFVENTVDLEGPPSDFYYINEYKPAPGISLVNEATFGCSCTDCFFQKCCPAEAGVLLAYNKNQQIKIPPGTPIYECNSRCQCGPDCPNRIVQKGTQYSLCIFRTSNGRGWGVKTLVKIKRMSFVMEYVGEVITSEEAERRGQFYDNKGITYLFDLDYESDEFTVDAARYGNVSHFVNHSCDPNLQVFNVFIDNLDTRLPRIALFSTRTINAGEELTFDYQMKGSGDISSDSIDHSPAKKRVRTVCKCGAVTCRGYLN
Chain of Histone-lysine N-methyltransferase EZH2 (Homo sapiens) (Q15910 whole entry, looked up): as the sequence (Q15910 whole entry Y641N, one chain of several) above, with N641Y counted along it

Structure (SMILES) | IC50 [1] | further results
CCCCNC(=O)[C@@H](N)CCSC[C@H]1O[C@@H](n2cnc3c(N)ncnc32)[C@H](O)[C@@H]1O | 19 µM | 
CCCCNC(=O)C(N)CCSC[C@H]1O[C@@H](n2cnc3c(N)ncnc32)[C@H](O)[C@@H]1O (mixture of isomers) | 24 µM | 
Nc1ncnc2c1ncn2[C@@H]1O[C@H](CSCC[C@H](N)C(=O)NCc2cc3n(n2)CCN(Cc2ccccc2)C3)[C@@H](O)[C@H]1O | 8 µM | IC50 [2]: 2.8 µM
CC(C)(C)c1cc(CNC(=O)[C@@H](N)CCSC[C@H]2O[C@@H](n3cnc4c(N)ncnc43)[C@H](O)[C@@H]2O)n[nH]1 | 14 µM | IC50 [2]: 3.6 µM
Cc1ccccc1-n1cc(CNC(=O)[C@@H](N)CCSC[C@H]2O[C@@H](n3cnc4c(N)ncnc43)[C@H](O)[C@@H]2O)cn1 | 28 µM | 
Nc1ncnc2c1ncn2[C@@H]1O[C@H](CSCC[C@H](N)C(=O)O)[C@@H](O)[C@H]1O [S-ADENOSYLHOMOCYSTEINE] |  | IC50 [3]: 0.23 µM; IC50 [4]: 30 µM; IC50 [5]: 0.18 µM; IC50 [6]: 2.3 µM; IC50 [7]: 32 µM; inhibition [8]: inactive; IC50 [9]: 2.2 µM; IC50 [10]: 10 µM
Nc1ncnc2c1ncn2[C@@H]1O[C@H](CSCC[C@H](N)C(=O)NCC2CC2)[C@@H](O)[C@H]1O | 60 µM | 
Cc1cc(CNC(=O)[C@@H](N)CCSC[C@H]2O[C@@H](n3cnc4c(N)ncnc43)[C@H](O)[C@@H]2O)n(C)n1 | 40 µM | 
Cn1nc(CNC(=O)[C@@H](N)CCSC[C@H]2O[C@@H](n3cnc4c(N)ncnc43)[C@H](O)[C@@H]2O)cc1C1CCC1 | 40 µM | 
COCc1cc(CNC(=O)[C@@H](N)CCSC[C@H]2O[C@@H](n3cnc4c(N)ncnc43)[C@H](O)[C@@H]2O)n[nH]1 | 40 µM | 
Nc1ncnc2c1ncn2[C@@H]1O[C@H](CSCC[C@H](N)C(=O)NCc2cnn(-c3ccc(F)cc3)c2)[C@@H](O)[C@H]1O | 1.4 µM | IC50 [2]: 0.6 µM
Nc1ncnc2c1ncn2[C@@H]1O[C@H](CSCC[C@H](N)C(=O)NCc2cc(C3CCC3)[nH]n2)[C@@H](O)[C@H]1O | 3 µM | IC50 [2]: 1 µM
CCn1cc(CNC(=O)[C@@H](N)CCSC[C@H]2O[C@@H](n3cnc4c(N)ncnc43)[C@H](O)[C@@H]2O)cn1 | 50 µM | 
Nc1ncnc2c1ncn2[C@@H]1O[C@H](CSCC[C@H](N)C(=O)NCc2ccccc2)[C@@H](O)[C@H]1O | 120 µM | 
Nc1ncnc2c1ncn2[C@@H]1O[C@H](CSCC[C@H](N)C(=O)NCc2cnn(Cc3ccccc3)c2)[C@@H](O)[C@H]1O | 24 µM | 
CN1CCn2nc(CNC(=O)[C@@H](N)CCSC[C@H]3O[C@@H](n4cnc5c(N)ncnc54)[C@H](O)[C@@H]3O)cc2C1 | 50 µM | 
